Experiments:
[1] = Ulrich et al., U.S. Pat. No. 5,728,735; cited from earlier work
[2] = system: insulin resistant obese Zucker rats; assay: Serum insulin and glucose in insulin resistant obese Zucker rats; type: in vivo, rat; details: oral 100 mg/kg/day for one week, versus placebo controls
Description: The drug was suspended in a mixture of 0.5% carboxymethylcellulose and administered by gavage. […] After one week, blood samples were obtained for measurement of serum insulin levels by radioimmunoassay and serum glucose levels by glucose oxidase method. […] The effects of a higher dose of orally administered Rezulin® (troglitazone) on serum insulin and glucose levels in male obese Zucker rats as reported by Fujiwara et al., Diabetes 37.1549 are shown for comparison purposes.

[3] = system: insulin resistant obese Zucker rats; assay: Triglyceride levels in insulin resistant obese Zucker rats; type: in vivo, rat; details: oral 100 mg/kg/day for one week
Description: The drug was suspended in a mixture of 0.5% carboxymethylcellulose and administered by gavage.

Human keratinocytes [4] = assay: Human keratinocyte proliferation (cell numbers); type: cell-based; details: varying concentrations
Human keratinocytes [5] = assay: Cell toxicity by lactate dehydrogenase release in keratinocyte culture; type: cell-based; details: highest concentration tested
[6] = system: Human HT-29 colon cancer cells; assay: HT-29 colon cancer cell proliferation (cell numbers); type: cell-based
[7] = system: Human MCF-7 breast cancer cells; assay: MCF-7 breast cancer cell proliferation (cell numbers); type: cell-based; details: MCF-7, varying concentrations
3T3 L 1 fibroblasts [8] = assay: 3T3 L1 fibroblast proliferation (cell numbers); type: cell-based; details: 3T3L1 cells
Protocol: (§1) This example illustrates the effects of compound 87 and troglitazone on proliferation of 3T3 L 1 fibroblasts and differentiation into adipocytes. 3T3L1 cells were incubated with varying concentrations of either compound 87 or troglitazone and the effects on cell proliferation determined by measurement of cell numbers. […] The compounds of the present invention are capable of preventing cell proliferation without inducing adipogenesis and represent useful agents for treatment and prevention of obesity.

3T3 L 1 fibroblasts [9] = assay: 3T3 L1 differentiation into adipocytes (morphology, oil red O staining); type: cell-based; details: 3T3L1 cells
Protocol: as §1

[10] = system: Human MDA-MB-23 1 breast cancer cells; assay: MDA-MB-231 breast cancer cell proliferation (cell numbers); type: cell-based
Protocol: […]. […] Human MDA-MB-23 1 breast cancer cells were incubated with varying concentrations of either compound 86 or troglitazone and the effects on cell proliferation determined by measurement of cell numbers. […]. Compound 86 inhibits growth of human breast cancer cells.

PPAR gamma = target: T1, PPAR gamma (Mus musculus, UniProt P37238); assay: In vitro molecular assays of PPAR gamma activation
T1 sequence (P37238 1-505): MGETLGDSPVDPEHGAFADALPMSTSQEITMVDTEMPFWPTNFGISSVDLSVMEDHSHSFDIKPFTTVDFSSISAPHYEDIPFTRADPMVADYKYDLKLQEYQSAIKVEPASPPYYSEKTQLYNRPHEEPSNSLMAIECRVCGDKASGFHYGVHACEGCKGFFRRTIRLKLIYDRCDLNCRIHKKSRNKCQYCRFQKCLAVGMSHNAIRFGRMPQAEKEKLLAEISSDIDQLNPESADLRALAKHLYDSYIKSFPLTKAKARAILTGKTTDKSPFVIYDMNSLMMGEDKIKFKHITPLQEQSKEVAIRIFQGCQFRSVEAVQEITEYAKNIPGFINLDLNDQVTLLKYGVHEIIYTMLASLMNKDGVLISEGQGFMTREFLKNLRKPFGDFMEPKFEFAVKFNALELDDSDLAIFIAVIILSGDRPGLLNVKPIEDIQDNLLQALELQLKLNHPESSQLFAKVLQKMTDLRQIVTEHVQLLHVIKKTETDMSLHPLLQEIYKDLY

## O=C(O)CCCC[C@@H]1CCSS1 [R-lipoic acid]
[1]
  anti-inflammatory activity, factor stronger than that of the racemate: 10

## CN(CCOc1ccc(CC2SC(=O)NC2=O)cc1)C(=O)CCCCC1CCSS1 (centres unmarked) [compound 12]
[2]; glucose oxidase method
  serum glucose levels: reductions in glucose levels
[2]; radioimmunoassay
  serum insulin levels: reductions in serum insulin levels
[3]
  triglyceride levels: potent ability to reduce triglyceride levels
Human keratinocytes [4]
  cell proliferation (cell numbers): dose dependent inhibition of cell proliferation
Human keratinocytes [5]
  cell toxicity (release of lactate dehydrogenase in the culture medium): without inducing cell toxicity
[6]; HT-29
  potency in inhibiting malignant cell proliferation compared with troglitazone: more potent than troglitazone
[6]; HT-29, varying concentrations
  cell proliferation (cell numbers): dose dependent inhibition of cell proliferation
[7]
  cell proliferation (cell numbers): dose dependent inhibition of malignant cell proliferation
3T3 L 1 fibroblasts [8]
  potency of inhibition of fibroblast proliferation compared with troglitazone: in a more potent fashion than troglitazone
3T3 L 1 fibroblasts [8]; varying concentrations
  fibroblast proliferation (cell numbers): dose dependent inhibition of fibroblast proliferation
3T3 L 1 fibroblasts [9]
  adipogenesis and conversion of the fibroblasts to adipocytes: potent inducers of adipogenesis

## O=C(CCCCC1CCSS1)NCCOc1ccc(CC2SC(=O)NC2=O)cc1 (centres unmarked) [compound 86]
[10]; MDA-MB-23 1
  potency in inhibiting malignant cell proliferation compared with troglitazone: more potent than troglitazone
[10]; MDA-MB-23 1, varying concentrations
  cell proliferation (cell numbers): dose dependent inhibition of cell proliferation

## CN(C(=O)CCCCC1CCSS1)c1ccc(CC2SC(=O)NC2=O)cc1 (centres unmarked) [compound 87]
3T3 L 1 fibroblasts [9]
  adipogenesis and conversion of the fibroblasts to adipocytes: but not compound 87 induced adipogenesis
PPAR gamma
  activation of PPAR gamma: did not activate PPAR gamma

## Cc1c(C)c2c(c(C)c1O)CCC(C)(COc1ccc(CC3SC(=O)NC3=O)cc1)O2 (centres unmarked) [troglitazone, reference compound]
Human keratinocytes [5]
  cell toxicity (release of lactate dehydrogenase in the culture medium): associated with cell toxicity
